We go through four molecules from publication PMC10794144, “A novel antibiotic class targeting the lipopolysaccharide transporter” (Nature, 2024).

Read-outs that look alike come from different tables or passages of the source.

Experiment in all cases: Off-target screening (CEREP)
Common to all, as to assay type: binding
What all share (conditions): read-out: percent inhibition

Test [1] addresses T1, 5HT1A (Homo sapiens, UniProt P08908).
T1 construct: purchased Eurofins CEREP SA
T1 sequence (P08908 1-422): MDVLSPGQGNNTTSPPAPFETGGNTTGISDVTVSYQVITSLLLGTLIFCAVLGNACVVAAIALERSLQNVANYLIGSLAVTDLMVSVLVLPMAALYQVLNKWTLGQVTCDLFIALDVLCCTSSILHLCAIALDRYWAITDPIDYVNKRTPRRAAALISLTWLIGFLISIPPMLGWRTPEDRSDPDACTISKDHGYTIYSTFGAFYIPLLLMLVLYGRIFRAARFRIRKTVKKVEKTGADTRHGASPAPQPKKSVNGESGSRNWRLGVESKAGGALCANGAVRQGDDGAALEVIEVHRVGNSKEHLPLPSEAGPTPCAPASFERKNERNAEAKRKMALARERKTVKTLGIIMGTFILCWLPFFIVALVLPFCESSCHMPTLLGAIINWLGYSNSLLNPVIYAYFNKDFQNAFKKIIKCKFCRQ
Here is the method: (§1) Supplementary Table 1 │ Off-target activity screening f or MCP compou nds […]
(§2) The assays given in the table above were conducted at Eurofins CEREP S A (Celle-Lévescault, France) and were run as single point measurements in duplicates in the presence of 10 µ M of the test compound and reported as percent inhibition of the radioligand signal or control enzymatic activity. n.d., not

In test [2] the target is T2, 5HT2B (Homo sapiens, UniProt P41595).
T2 construct: purchased Eurofins CEREP SA
How it is done:
as §1, §2

Test [3] concerns the target T3, Adenosine A1 respetor (Homo sapiens, UniProt P30542).
T3 construct: purchased Eurofins CEREP SA
T3 sequence (P30542 1-326): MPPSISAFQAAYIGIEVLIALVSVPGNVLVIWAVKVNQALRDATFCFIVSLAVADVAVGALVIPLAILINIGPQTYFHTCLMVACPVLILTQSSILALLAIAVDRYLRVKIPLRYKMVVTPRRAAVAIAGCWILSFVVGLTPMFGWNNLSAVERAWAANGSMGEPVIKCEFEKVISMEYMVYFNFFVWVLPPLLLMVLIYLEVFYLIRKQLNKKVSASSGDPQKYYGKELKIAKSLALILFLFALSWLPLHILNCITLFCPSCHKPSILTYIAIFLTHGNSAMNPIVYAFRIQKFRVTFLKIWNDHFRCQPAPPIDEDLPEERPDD
Here is the method:
as §1, §2

Test [4] addresses T4, Alpha1A-adrenoreceptor (Homo sapiens, UniProt P35348).
T4 construct: purchased Eurofins CEREP SA
T4 sequence (P35348 1-466): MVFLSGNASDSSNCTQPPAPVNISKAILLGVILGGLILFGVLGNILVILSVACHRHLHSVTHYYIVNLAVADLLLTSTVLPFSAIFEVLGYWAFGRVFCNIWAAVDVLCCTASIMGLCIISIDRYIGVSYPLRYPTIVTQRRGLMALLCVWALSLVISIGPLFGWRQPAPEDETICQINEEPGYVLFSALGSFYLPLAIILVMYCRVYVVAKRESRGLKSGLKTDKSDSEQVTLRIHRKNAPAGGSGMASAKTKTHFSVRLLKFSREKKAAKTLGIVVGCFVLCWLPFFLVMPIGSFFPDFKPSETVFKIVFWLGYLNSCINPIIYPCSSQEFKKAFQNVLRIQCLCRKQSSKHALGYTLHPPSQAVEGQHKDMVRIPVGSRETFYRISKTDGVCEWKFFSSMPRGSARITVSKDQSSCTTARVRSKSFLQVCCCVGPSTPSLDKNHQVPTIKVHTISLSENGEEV
Here is the method: as §1, §2

The target of test [5] is T5, Angiotensin II receptor 1 (Homo sapiens, UniProt P30556).
T5 construct: purchased Eurofins CEREP SA
T5 sequence (P30556 1-359): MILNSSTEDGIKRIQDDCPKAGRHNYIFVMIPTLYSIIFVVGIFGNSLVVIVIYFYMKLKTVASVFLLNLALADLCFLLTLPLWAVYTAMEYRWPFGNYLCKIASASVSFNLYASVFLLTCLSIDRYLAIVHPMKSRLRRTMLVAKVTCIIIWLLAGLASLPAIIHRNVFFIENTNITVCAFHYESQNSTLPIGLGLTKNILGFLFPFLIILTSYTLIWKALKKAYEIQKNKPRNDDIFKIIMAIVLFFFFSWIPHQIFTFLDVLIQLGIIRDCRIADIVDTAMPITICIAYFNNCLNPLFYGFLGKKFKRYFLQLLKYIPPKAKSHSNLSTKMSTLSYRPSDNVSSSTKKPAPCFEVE
How it is done:
as §1, §2

Test [6] deals with T6, Beta1-adrenoreceptor (Homo sapiens, UniProt P08588).
T6 construct: purchased Eurofins CEREP SA
Here is the method:
as §1, §2

Test [7] concerns the target T7, Beta2-adrenoreceptor (Homo sapiens, UniProt P07550).
T7 construct: purchased Eurofins CEREP SA
How it is done: as §1, §2

In test [8] the target is Glycine receptor, strychnine insensitive (Rattus norvegicus, UniProt P35439). Here is the method:
as §1, §2

Test [9] has as its target T8, Kappa opioid receptor (Homo sapiens, UniProt P41145).
T8 construct: purchased Eurofins CEREP SA
Here is the method:
as §1, §2

The target in test [10] is T9, Muscarinic receptor M1 (Homo sapiens, UniProt P11229).
T9 construct: purchased Eurofins CEREP SA
T9 sequence (P11229 1-460): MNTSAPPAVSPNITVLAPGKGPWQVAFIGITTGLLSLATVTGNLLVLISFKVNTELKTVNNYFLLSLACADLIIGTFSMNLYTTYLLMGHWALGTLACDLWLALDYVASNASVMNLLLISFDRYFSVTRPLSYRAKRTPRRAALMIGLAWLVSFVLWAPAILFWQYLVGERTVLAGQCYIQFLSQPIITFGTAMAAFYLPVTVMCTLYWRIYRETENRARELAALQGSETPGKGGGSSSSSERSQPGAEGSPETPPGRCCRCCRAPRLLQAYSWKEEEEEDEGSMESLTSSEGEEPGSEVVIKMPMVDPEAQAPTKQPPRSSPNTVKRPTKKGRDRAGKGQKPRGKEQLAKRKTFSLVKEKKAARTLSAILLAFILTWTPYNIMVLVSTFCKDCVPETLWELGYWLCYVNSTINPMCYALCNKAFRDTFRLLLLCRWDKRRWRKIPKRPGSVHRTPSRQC
How it is done: as §1, §2

Test [11] deals with T10, Norepinephrine transporter (Homo sapiens, UniProt P23975).
T10 construct: purchased Eurofins CEREP SA
Here is the method: as §1, §2

Test [12] concerns the target T11, Prostaglandin F receptor (Homo sapiens, UniProt P43088).
T11 construct: purchased Eurofins CEREP SA
Here is the method:
as §1, §2

T11 sequence (P43088 whole entry): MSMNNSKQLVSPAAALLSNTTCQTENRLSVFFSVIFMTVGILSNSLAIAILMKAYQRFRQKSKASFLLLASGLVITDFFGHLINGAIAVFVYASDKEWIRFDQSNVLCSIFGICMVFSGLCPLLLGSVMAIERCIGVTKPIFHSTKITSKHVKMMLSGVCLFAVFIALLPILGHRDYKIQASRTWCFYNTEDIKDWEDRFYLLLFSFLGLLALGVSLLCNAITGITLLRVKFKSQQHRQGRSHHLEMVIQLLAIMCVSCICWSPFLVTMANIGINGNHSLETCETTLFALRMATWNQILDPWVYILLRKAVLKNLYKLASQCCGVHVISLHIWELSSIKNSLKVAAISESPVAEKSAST
T6 sequence (P08588 whole entry): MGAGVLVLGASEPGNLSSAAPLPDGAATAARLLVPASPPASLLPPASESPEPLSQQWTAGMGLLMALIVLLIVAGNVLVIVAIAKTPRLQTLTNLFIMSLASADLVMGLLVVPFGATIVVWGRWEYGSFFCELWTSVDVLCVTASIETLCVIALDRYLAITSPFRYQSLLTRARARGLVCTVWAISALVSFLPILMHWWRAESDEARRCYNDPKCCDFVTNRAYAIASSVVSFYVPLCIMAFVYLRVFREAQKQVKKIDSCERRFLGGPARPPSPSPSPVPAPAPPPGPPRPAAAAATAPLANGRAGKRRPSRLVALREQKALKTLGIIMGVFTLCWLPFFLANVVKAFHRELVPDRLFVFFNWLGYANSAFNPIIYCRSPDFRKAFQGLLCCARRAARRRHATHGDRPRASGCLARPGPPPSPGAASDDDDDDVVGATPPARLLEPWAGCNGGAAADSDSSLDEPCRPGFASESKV
T2 sequence (P41595 whole entry): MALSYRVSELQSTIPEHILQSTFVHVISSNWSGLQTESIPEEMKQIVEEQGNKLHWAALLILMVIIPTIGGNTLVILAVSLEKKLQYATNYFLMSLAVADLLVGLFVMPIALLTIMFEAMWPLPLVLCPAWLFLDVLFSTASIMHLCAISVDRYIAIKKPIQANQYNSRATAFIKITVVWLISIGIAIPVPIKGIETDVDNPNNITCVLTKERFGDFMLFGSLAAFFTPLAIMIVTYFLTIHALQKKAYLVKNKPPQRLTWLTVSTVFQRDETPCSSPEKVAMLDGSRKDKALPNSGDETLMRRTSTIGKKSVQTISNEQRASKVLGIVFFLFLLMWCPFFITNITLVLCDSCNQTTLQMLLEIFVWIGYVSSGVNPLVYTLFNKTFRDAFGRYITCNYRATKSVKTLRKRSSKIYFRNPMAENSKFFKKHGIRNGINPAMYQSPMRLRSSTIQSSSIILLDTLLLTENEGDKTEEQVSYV
T10 sequence (P23975 whole entry): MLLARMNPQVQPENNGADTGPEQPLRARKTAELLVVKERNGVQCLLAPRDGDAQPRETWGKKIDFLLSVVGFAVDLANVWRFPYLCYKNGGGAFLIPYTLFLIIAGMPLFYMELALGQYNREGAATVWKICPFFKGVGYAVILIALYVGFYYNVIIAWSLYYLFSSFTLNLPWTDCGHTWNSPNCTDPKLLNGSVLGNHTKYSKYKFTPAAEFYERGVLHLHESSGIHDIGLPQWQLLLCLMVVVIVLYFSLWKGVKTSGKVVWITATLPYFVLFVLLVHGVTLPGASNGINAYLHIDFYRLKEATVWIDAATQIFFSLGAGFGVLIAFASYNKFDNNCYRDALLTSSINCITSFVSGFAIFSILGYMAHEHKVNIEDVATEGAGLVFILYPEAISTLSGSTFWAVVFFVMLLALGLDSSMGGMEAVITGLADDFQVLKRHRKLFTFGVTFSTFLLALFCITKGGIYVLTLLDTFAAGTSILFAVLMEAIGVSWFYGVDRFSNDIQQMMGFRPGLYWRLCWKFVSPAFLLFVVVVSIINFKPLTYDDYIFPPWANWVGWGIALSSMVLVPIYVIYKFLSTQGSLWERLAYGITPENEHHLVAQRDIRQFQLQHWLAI
Glycine receptor, strychnine insensitive, sequence (P35439 394-800): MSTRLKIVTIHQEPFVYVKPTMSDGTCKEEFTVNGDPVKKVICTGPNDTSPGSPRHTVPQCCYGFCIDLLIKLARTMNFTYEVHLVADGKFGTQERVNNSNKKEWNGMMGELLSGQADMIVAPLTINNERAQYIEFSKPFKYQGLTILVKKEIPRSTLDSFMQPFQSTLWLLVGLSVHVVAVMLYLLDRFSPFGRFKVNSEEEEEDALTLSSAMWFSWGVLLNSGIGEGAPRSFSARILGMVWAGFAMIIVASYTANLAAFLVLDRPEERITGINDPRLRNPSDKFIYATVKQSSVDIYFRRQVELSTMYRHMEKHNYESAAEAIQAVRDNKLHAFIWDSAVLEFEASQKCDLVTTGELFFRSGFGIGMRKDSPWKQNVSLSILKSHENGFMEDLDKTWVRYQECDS
T8 sequence (P41145 whole entry): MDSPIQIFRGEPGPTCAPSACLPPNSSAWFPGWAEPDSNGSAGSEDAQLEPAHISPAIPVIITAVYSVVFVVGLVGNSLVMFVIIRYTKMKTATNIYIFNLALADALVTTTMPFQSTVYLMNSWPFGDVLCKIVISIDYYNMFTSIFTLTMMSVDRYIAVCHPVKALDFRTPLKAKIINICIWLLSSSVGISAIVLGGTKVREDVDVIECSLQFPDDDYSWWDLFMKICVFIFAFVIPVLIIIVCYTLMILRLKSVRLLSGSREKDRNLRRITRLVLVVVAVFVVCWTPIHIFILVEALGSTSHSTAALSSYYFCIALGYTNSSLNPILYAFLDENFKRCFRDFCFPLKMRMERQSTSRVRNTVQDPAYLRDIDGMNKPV
T7 sequence (P07550 whole entry): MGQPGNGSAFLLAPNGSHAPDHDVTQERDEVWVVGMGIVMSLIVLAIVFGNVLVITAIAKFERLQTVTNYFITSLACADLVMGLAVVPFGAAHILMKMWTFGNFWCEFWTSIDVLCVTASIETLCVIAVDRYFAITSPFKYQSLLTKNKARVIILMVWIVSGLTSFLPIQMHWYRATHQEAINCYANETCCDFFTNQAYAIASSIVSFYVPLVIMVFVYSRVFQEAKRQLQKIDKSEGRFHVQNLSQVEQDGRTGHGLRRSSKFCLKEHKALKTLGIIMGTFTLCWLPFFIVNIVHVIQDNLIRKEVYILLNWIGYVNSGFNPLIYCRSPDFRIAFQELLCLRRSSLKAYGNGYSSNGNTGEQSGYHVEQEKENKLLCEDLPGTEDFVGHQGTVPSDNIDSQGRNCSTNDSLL

`CN1C(=O)[C@H](CCCCN)NC(=O)[C@H](CCCN)NCc2cccnc2Sc2c(Cl)ccc(-c3ccc(C(=O)O)cc3)c2CNC(=O)[C@@H]1Cc1c[nH]c2ccccc12` [RO7202110]: the inhibition at 10 µM in [1] (10 µM, duplicates) is 13%; in test [2] (10 µM, duplicates), 14%; in test [3] (10 µM, duplicates) it was 1%; in [4] (10 µM, duplicates), 7%; in test [5] (10 µM, duplicates) it was 14%; in test [6] (10 µM, duplicates) it was -2%. The inhibition at 10 µM is -11% in [7] (10 µM, duplicates); -25% in [8]; 32% in [9] (10 µM, duplicates); -6% in test [10] (10 µM, duplicates); 14% in test [11] (10 µM, duplicates); -3% in test [12] (10 µM, duplicates).

For the molecule `CN1C(=O)[C@H](CCCCN)NC(=O)[C@H](CCCN)NCc2cccnc2Sc2c(Cl)ccc(Cl)c2CNC(=O)[C@@H]1Cc1c[nH]c2ccccc12` [RO7075573], the inhibition at 10 µM in test [1] was 11%; in test [2], 1%; in test [3], -10%; in test [4], 22%; in test [5], -7%; in [6], -2%. The inhibition at 10 µM in test [7] was -7%; in test [8] it was -29%; in test [9] it was 26%; in test [10], 20%; in test [11], 1%; in test [12] it was -4%.

For the molecule `CN1C(=O)[C@H](CCCCN)NC(=O)[C@H](CCCN)NCc2cccnc2Sc2cccc(-c3ccc(C(=O)O)cc3)c2CNC(=O)[C@@H]1Cc1c[nH]c2ccccc12` [zosurabalpin], the inhibition at 10 µM in test [1] was 0%; in test [2] it was -1%; in test [3], -7%; in test [4] it was 7%; in [5] it was 6%; in test [6], 10%. The inhibition at 10 µM in [7] is 6%; in [8] it was 15%; in [9], 9%; in [10], -3%; in test [11], 12%; in test [12], 5%.

As to `CN1C(=O)[C@H](CCCN)NC(=O)[C@H](CCCN)NCc2ccccc2Sc2ccccc2CNC(=O)[C@@H]1Cc1c[nH]c2ccccc12` [RO7036668], the inhibition at 10 µM in [1] (10 µM, duplicates) amounted to 33%; in test [2] (10 µM, duplicates), 27%; in [3] (10 µM, duplicates), 1%; in [4] (10 µM, duplicates), 15%; in test [5] (10 µM, duplicates), 14%; in test [6] (10 µM, duplicates), 12%. Also, the inhibition at 10 µM in test [7] (10 µM, duplicates) is 3%; in test [8] it was -27%; in test [9] (10 µM, duplicates), 69%; in test [10] (10 µM, duplicates), 26%; in test [11] (10 µM, duplicates) it was 43%; in test [12] (10 µM, duplicates), 2%.

The term inhibition denotes the relative decrease from the control value, in per cent.
